US8501911B2, “Methods of reducing inflammation and mucus hypersecretion” (Biomarck Pharmaceuticals, Ltd, priority 1999, dated 2013)
Where “and” joins values, the source holds several entries; their conditions need not be identical. Equal entries are not always repeated. Residues, ends and D or L forms follow the SMILES beside them. *: point of attachment. Myristoyl = CCCCCCCCCCCCCC(=O)*

What was measured:
NHBE cells = test: Mucin secretion from NHBE cells exposed to kinase activators/reagents alone (ELISA); assay type: cell-based, human; conditions: for Mucin secretion as percent of control: 15 min
Protocol: To determine the potential role of PKC and/or PKG in the mucin secretory process, NHBE cells were exposed to the following two specific protein kinase activators: the phorbol ester, phorbol 12-myristate 13-acetate (PMA), for activation of PKC, and the nonhydrolyzable cGMP analogue, 8-Br-cGMP, for activation of PKG.
NHBE Cell Culture—Expansion, cryopreservation, and culture of NHBE cells in the air/liquid interface were performed as described previously. See, Krunkosky et al. Briefly, NHBE cells (Clonetics, San Diego, Calif.) were seeded in vented T75 tissue culture flasks (500 cells/cm^2) and cultured until cells reached 75-80% confluence. Cells were then dissociated by trypsin/EDTA and frozen as passage-2. Air/liquid interface culture was initiated by seeding passage-2 cells (2×10^4 cells/cm^2) in […]® clear culture inserts (Costar, Cambridge, Mass.) that were thinly coated with rat tail collagen, type 1 (Collaborative Biomedical, Bedford, Mass.). Cells were cultured submerged in medium in a humidified 95% air, 5% CO2 environment for 5-7 days until nearly confluent. At that time, the air/liquid interface was created by removing the apical medium and feeding cells basalaterally. Medium was renewed daily thereafter. Cells were cultured for an additional 14 days to allow for full differentiation.
Measurement of Mucin Secretion by ELISA—Before collection of “base line” and “test” mucin samples, the accumulated mucus at the apical surface of the cells was removed by washing with phosphate-buffered saline, pH 7.2. To collect the base-line secretion, cells were incubated with medium alone, and secreted mucin in the apical medium was collected and reserved. Cells were rested for 24 h and then exposed to medium containing the selected stimulatory and/or inhibitory reagents (or appropriate controls), after which secreted mucin was collected and reserved as the test sample. Incubation times for the base line and the test were the same but varied depending on the test reagent utilized. Both base line and test secretions were analyzed by ELISA using an antibody capture method as known in the art. See, e.g., Harlow et al., Antibodies: A Laboratory Manual, pp. 570-573, Cold Spring Harbor Laboratory, Cold Spring Harbor, N.Y. (1988). The primary antibody for this assay was 17Q2 (Babco, Richmond, Calif.), a monoclonal antibody that reacts specifically with a carbohydrate epitope on human airway mucins. […] Wright et al., Am. J. Physiol. 271, L854-L861 (1996). Levels of mucin secretion were reported as percentage of the medium control.
Mucus secreted from the airway epithelial cells in vitro after stimulation by activators was assessed using an ELISA (antibody capture method) (E. Harlow, D. Lane. “Antibodies: A Laboratory Manual.” New York: Cold Spring Harbor Laboratory Press, 1988), wherein the collected mucus is bound directly to the ELISA plate. Mucus was detected using an antibody raised against monkey airway mucus (Lin et al. Am J Respir Cell Mol Biol 1:41, 1989).

HL-60 clone 15 cells = test: Inhibition of eosinophil peroxidase (EPO) release from HL-60 clone 15 cells; assay type: cell-based, human; conditions: at 50 μM of test peptide; 100 nM PMA 2 hours
Source text: The human promyelocytic cell line (Fischkoff S A, Graded increase in probability of eosinophilic differentiation of HL-60 promyelocytic leukemia cells induced by culture under alkaline conditions. Leuk. Res., 12:679-686, 1988; Rosenberg H F, Ackerman S J, Tenen D G. Human eosinophil cationic protein: molecular cloning of a cytotoxin and helminthotoxin with ribonuclease activity. J. Exp. Med., 170:163-176, 1989), HL-60 clone 15, is eosinophil-like promyelocytic human cell line which was purchased from American Type Culture Collection (ATCC) Rockville, Md. (catalog #CRL-1964). The cells were maintained in medium consisting of RPMI 1640 with glutamine supplemented with 10% heat inactivated fetal bovine serum (Gibco, Carlsbad, Calif.), 50 IU/mL penicillin, 50 μg/mL streptomycin, and 25 mM HEPES buffer, pH 7.8 at 37° C. in an atmosphere containing 5% CO2. Final differentiation of an eosinophil-like phenotype was initiated by culturing the cells at 5×10^5 cells/mL in the above medium containing 0.5 mM butyric acid (Sigma-Aldrich) for 5 days as previously described by Tiffany H L, Li F, and Rosenberg H F, Hyperglycosylation of eosinophil ribonuclease in a promyelocytic leukemia cell line and in differentiated peripheral blood progenitor cells J. Leukoc. Biol. 58: 49-54, 1995; and by Tiffany H L, Alkhatib G, Combadiere C, Berger E A, and Murphy P M., CC Chemokine receptors are differentially regulated by IL-5 during maturation of eosinophilic HL-60 cells. J. Immunol. 160:1385-1392, 1998. The cells were washed and resuspended at 2.5×10^6 per mL in phenol free RPMI-1640 (Cellgro; Mediatech Inc.). Aliquots of cells in 15 mL plastic tubes were preincubated with indicated concentration of test peptide (dissolved in PBS, pH 7.0) for 10 minutes followed by treatment of the cells with 100 nM PMA for 2 hours. The reaction was terminated by placing the tubes on ice and centrifugation of cells at 400 g for 5 min at 4° C. The eosinophil peroxidase (EPO) activity released by HL-60 clone 15 cells was assayed using TMB according to a previously established technique Paige et al (see above) and by Lacy P, Mahmudi-Azer S, Bablitz B, Hagen S C, Velazquez J R, Man S F, Moqbel R. Rapid mobilization of intracellularly stored RANTES in response to interferon-gamma in human eosinophils. Blood 94:23-32, 1999. Briefly, add 50 μL aliquots of the supernatant to 96-well microtiter plate followed by addition of 100 μL of the tetramethylbenzidine (TMB) substrate solution and incubate at room temperature for 15 minutes. The reaction was terminated by addition of 50 μL of 1.0 M sulfuric acid and absorbance was read at 450 nm in a spectrophotometric microplate reader (Molecular Devices, Sunnyvale, Calif.). The amount of secreted EPO was expressed as percentage of total content using the amount obtained in the same number of triton X-100-lysed cells.
Because standard EPO from HL-60 clone 15 cells was not available to use for quantification, we measured both released and intracellular (from lysed cells) levels of EPO, and expressed the released EPO as a percentage of total (intracellular and released) for each. To measure intracellular EPO in HL-60 clone 15 cells, appropriate aliquots of 0.1% triton X-100-lysed cells were taken for quantification of intracellular EPO as described above. All data are expressed as percentage of control to minimize variability between cultures.

[1] = Solubility in 0.5 N saline; assay type: physicochemical; conditions: in 0.5 N Saline at pH 6.5

Molecule	% Inhibition EPO (HL-60 clone 15 cells) [%]	solubility [1] [µg/mL]	further results
Nc1nc2c(nc(Br)n2[C@@H]2O[C@@H]3COP(=O)(O)O[C@H]3[C@H]2O)c(=O)[nH]1 [8-Br-cGMP]			Mucin secretion as percent of control (NHBE cells; reagent 1 μM alone): 109%
CCCCCCCCCCCCCC(=O)NCC(=O)N[C@@H](C)C(=O)N[C@@H](CCC(N)=O)C(=O)N[C@@H](Cc1ccccc1)C(=O)N[C@@H](CO)C(=O)N[C@@H](CCCCN)C(=O)N[C@H](C(=O)N[C@@H](C)C(=O)N[C@@H](C)C(=O)N[C@@H](CCCCN)C(=O)NCC(=O)N[C@@H](CCC(=O)O)C(=O)N[C@@H](C)C(=O)N[C@@H](C)C(=O)N[C@@H](C)C(=O)N[C@@H](CCC(=O)O)C(=O)N[C@@H](CCCNC(=N)N)C(=O)N1CCC[C@H]1C(=O)NCC(=O)N[C@@H](CCC(=O)O)C(=O)N[C@@H](C)C(=O)N[C@@H](C)C(=O)N[C@H](C(=O)N[C@@H](C)C(=O)O)C(C)C)[C@@H](C)O [MANS peptide] (Myristoyl-GAQFSKTAAKGEAAAERPGEAAVA-OH; C-terminus assumed)	46.1	< 5000	
CCCCCCCCCCCCCC(=O)O[C@@H]1[C@@H](C)[C@@]2(O)[C@@H](C=C(CO)C[C@]3(O)C(=O)C(C)=C[C@@H]23)[C@@H]2C(C)(C)[C@]12OC(C)=O [PMA, phorbol 12-myristate 13-acetate]			Mucin secretion as percent of control (NHBE cells; reagent 100 nM alone): 123% and 122%; Mucin secretion in response to PMA alone (NHBE cells; various concentrations and times, up to 1 μM for 2 h): did not induce significant mucin secretion
CCCCCCCCCCCCCC(=O)NCC(=O)N[C@H](C(=O)N[C@@H](C)C(=O)N1CCC[C@H]1C(=O)N[C@@H](C)C(=O)N[C@@H](C)C(=O)N[C@@H](CCC(=O)O)C(=O)NCC(=O)N[C@@H](C)C(=O)NCC(=O)N[C@@H](C)C(=O)N[C@@H](CCC(=O)O)C(=O)N[C@H](C(=O)N[C@@H](CCCCN)C(=O)N[C@@H](CCCNC(=N)N)C(=O)N[C@@H](C)C(=O)N[C@@H](CO)C(=O)N[C@@H](C)C(=O)N[C@@H](CCC(=O)O)C(=O)N[C@@H](C)C(=O)N[C@@H](CCCCN)C(=O)N[C@@H](CCC(N)=O)C(=O)N[C@@H](C)C(=O)N[C@@H](Cc1ccccc1)C(=O)O)C(C)C)[C@@H](C)O [RNS peptide, reference compound] (Myristoyl-GTAPAAEGAGAEVKRASAEAKQAF-OH; C-terminus assumed)	0	> 15000	
CCCCCCCCCCCCCC(=O)NCC(=O)N[C@@H](C)C(=O)N[C@@H](CCC(N)=O)C(=O)N[C@@H](Cc1ccccc1)C(=O)N[C@@H](CO)C(=O)N[C@@H](CCCCN)C(=O)N[C@H](C(=O)N[C@@H](C)C(=O)N[C@@H](C)C(=O)N[C@@H](CCCCN)C(=O)NCC(=O)N[C@@H](CCC(=O)O)C(=O)O)[C@@H](C)O [SEQ ID NO: 13, N-myristoyl-GAQFSKTAAKGE] (Myristoyl-GAQFSKTAAKGE-OH; C-terminus assumed)	25.2	> 2000	
CCCCCCCCCCCCCC(=O)NCC(=O)N[C@@H](C)C(=O)N[C@@H](CCC(N)=O)C(=O)N[C@@H](Cc1ccccc1)C(=O)N[C@@H](CO)C(=O)N[C@@H](CCCCN)C(=O)N[C@H](C(=O)N[C@@H](C)C(=O)N[C@@H](C)C(=O)N[C@@H](CCCCN)C(=O)O)[C@@H](C)O [SEQ ID NO: 15, N-myristoyl-GAQFSKTAAK] (Myristoyl-GAQFSKTAAK-OH; C-terminus assumed)	37.4	> 10000	
TNF-α			Mucin secretion level, % of control (NHBE cells; TNF-α 10 ng/ml 4 h, no secretagogue): 109%
